Assay results published in US20230026163A1, “ANTICANCER COMPOUND AND MEDICAL USE THEREOF” (ASCENTAWITS PHARMACEUTICALS, LTD., priority 2019, published 2023).
Where two headings read alike, the source gives them in different places.

Key:
[1] = test system: H460 non-small cell lung cancer; assay: Cytotoxicity test of human tumor cell line in vitro (CTG, 72 hours); type: cell-based; details: Homo sapiens, NCI-H460; H460, 72 hours exposure
Method: IC50 values were obtained by the following methods. The cancer cells were exposed to various concentrations of compounds for 72 hours. Following by washing steps, fresh medium was added to allow the growth of the cancer cells. The cancer cells were stained to obtain cell viability. Then, comparisons were made with the medium-only control.
Specifically, the exponentially growing cells were seeded in 96-well plates at a density of 2×10^3 cells/well, and 100 μL/well. The cells were incubated for 24 hours at 37° C., in 5% CO2, in 95% air, and 100% relative humidity. Next, 99 μL of culture medium was added. The compounds were dissolved in 100% DMSO at 200 times the desired final test concentration. Upon addition of compounds, the compounds were further diluted to 4 times the desired final concentration with a complete medium. Aliquots of 1 μL of compounds at specific concentration were added to the micro-wells containing 199 μL of medium to obtain the final compound concentrations as reported. After the compounds were added, the plates were incubated for an addition 72 hours at 37° C., in 5% CO2, in 95% air, and 100% relative humidity.
The plates to be test containing the cells were equilibrated at room temperature for 30 minutes, and 100 μL of medium per well was discarded. 100 μL of CTG reagent (CelltiterGlo Kit) was added to each well. The plates were placed in a fast-shaker to shake for 2 minutes, and placed at room temperature for 30 minutes in the dark. Chemoluminescence signal values were read with Envision instrument.

H460 cell line = assay: Hypoxia-dependent cytotoxicity experiment (2 hours exposure, air or N2, CTG); type: cell-based; details: Homo sapiens, then 3 days
Method: To determine the effect of the compounds of the present disclosure on cancer cell proliferation, these compounds were tested for cancer cell anti-proliferative activity in a porous CTG-based assay. Cell growth was compared in the present (treatment groups) and the absence of the test compound. 10,000 cells/well/495 μL of medium was used to test the following cell line, a human tumor cell line of H460 non-small cell lung cancer. The cells were seeded on glass-inserts located in each well of 24-well plates with a density and medium as specified above. 24 hours later, the plates were divided into 2 groups, hypoxia (using N2) group and air group. TH-302 at the concentrations from 100, 10, 0.1 to 0.01 μM, and the test compounds at the concentrations from 10, 1, 0.1, 0.01, 0.001 to 0.0001 were added to each well (500 μL volume) of the treatment groups. The final DMSO concentration in each well was lower than or equal to 1%. The cells in the hypoxia group were incubated for 2 hours in an ELECTROTEK hypoxia workstation. The cells in the air group were incubated for 2 hours in a standard culture incubator. 2 hours later, the test compounds were removed from each well. The cells were washed with 500 μL of medium and incubated in 500 μL of fresh medium for 3 days. 3 days later, 200 μL of medium per well was discarded. 60 μL of CTG was added to the wells, and the plates were placed at room temperature for 15 minutes in the dark. 100 μL of medium from each well of the 24-well plates was transferred to 96-well plates. The chemiluminescence signal values were read with an M5 full-band multi-mode-function microplate reader, and integration=750 ms. The compounds of control 1 and control 2 were used as controls.

[2] = Maximal tolerance dose (MTD) experiment; type: in vivo, ICR mice; details: for MTD at 5 days: both sexes, ICR, mouse, in vivo, iv
Method: 18 ICR mice, 9 females/9 males, were selected for the experiment. According to gender and body weight, the mice were randomly divided into a 10 mg/kg group, a 20 mg/kg group, and a 40 mg/kg group of the S-configuration of compound 01, with 3 females/3 males in each group. By intravenous injection, the 10 mg/kg group of the S-configuration of compound 01 was administered with 1 mg/ml of the administration concentration, 10 ml/kg of the administration volume, and 10 mg/kg of the dose. The 20 mg/kg group containing the S-configuration of compound 01 was administered with 2 mg/ml of the administration concentration, 10 ml/kg of the administration volume, and 20 mg/kg of the dose. The 40 mg/kg group containing the S-configuration of compound 01 was administered with 4 mg/ml of the administration concentration, 10 ml/kg of the administration volume, and 40 mg/kg of the dose. The mice was administered once a day for 5 consecutive days, and recovered for 2 weeks after the last administration. The mice were closely observed for 2 hours after administration of the daily drug. The mice were observed twice a day in the morning and afternoon on the non-administration day. During the experiment, body weight and food intake were measured twice a week. The dead animals and all the survival animals were subjected to gross necropsy on the 14th day after the last administration. The diseased organic were grossly necropsied for histopathological examination.
18 ICR mice, 9 females/9 males, were selected for the experiment. According to gender and body weight, the mice were randomly divided into a 10 mg/kg group, a 20 mg/kg group, and a 40 mg/kg group of the R-configuration of compound 01, with 3 females/3 males in each group. By intravenous injection, the 10 mg/kg group of the R-configuration of compound 01 was administered with 1 mg/ml of the administration concentration, 10 ml/kg of the administration volume, and 10 mg/kg of the dose. The 20 mg/kg group of the R-configuration of compound 01 was administered with 2 mg/ml of the administration concentration, 10 ml/kg of the administration volume, and 20 mg/kg of the dose. The 40 mg/kg group of the R-configuration of compound 01 was administered with 4 mg/ml of the administration concentration, 10 ml/kg of the administration volume, and 40 mg/kg of the dose. The mice was administered once a day for 5 consecutive days, and recovered for 1 week after the last administration. […] To find the maximum tolerated dose, a second cycle of dosing was required. The doses were adjusted and administered for 5 consecutive days.
The mice were closely observed for 2 hours after administration of the daily drug. The mice were observed twice a day in the morning and afternoon on the non-administration day. During the experiment, body weight and food intake were measured twice a week. The dead animals and all the survival animals were subjected to gross necropsy on the 14th day after the last administration. The diseased organic were grossly necropsied for histopathological examination.

[3] = NCI-H460, H460, air, read-out: Normoxia: IC50
[4] = NCI-H460, H460, hypoxia (N2), read-out: N2: IC50

O=[N+]([O-])c1ccc(C(OP(=O)(N2CC2)N2CC2)C(F)(F)F)cc1 (centres unmarked) [Control 2, reference compound]
IC50 [1]: 0.659 µM
IC50 (H460 cell line; [3]): 15.6 µM
IC50 (H460 cell line; [4]): 7.08 µM

O=[N+]([O-])c1c(COP(=O)(N2CC2)N2CC2)ccc2ccccc12 [Compound 03]
IC50 [1]: 0.806 µM
IC50 (H460 cell line; [3]): 10 µM
IC50 (H460 cell line; [4]): 0.634 µM

CC(OP(=O)(N1CC1)N1CC1)c1ccc([N+](=O)[O-])c2ccccc12 (centres unmarked) [Compound 26]
IC50 [1]: 0.092 µM
IC50 (H460 cell line; [3]): 0.0376 µM
IC50 (H460 cell line; [4]): < 0.0098 µM

O=[N+]([O-])c1ccc([C@@H](OP(=O)(N2CC2)N2CC2)C(F)(F)F)c2ccccc12 [R-configuration of compound 01]
Animal death after the first 5 consecutive days ([2]; 10, 20 and 40 mg/kg groups, first cycle): no animal death
Animals died ([2]; 10/80 mg/kg group (1st cycle 10 mg/kg, 2nd cycle 80 mg/kg)): 1 of the 6
Animals died ([2]; 20/60 mg/ml group): 3 of the 6
Animals died ([2]; 40/40 mg/kg group): 1 of the 6
Maximum tolerated dose / MTD result ([2]; ICR mice, intravenous injection, once a day for 5 consecutive days): 20 to 40 mg/kg
Effect on animal body weight ([2]; after intravenous injection in mice): increased slowly
Gross necropsy of the surviving animals ([2]; after the recovery period): on obvious gross pathological changes
MTD at 5 days ([2]; ICR mice, intravenous injection, first cycle, read-out: Maximum tolerated dose): > 40 mg/kg
MTD at 5 days ([2]; ICR mice, intravenous injection, once a day for 5 consecutive days, read-out: Maximum tolerated dose / MTD result): 20 to 40 mg/kg
MTD at 5 days ([2]; ICR mice, intravenous injection, second cycle, read-out: Maximum tolerated dose): < 40 mg/kg
Average food intake vs normal mice ([2]; each administration group): no significant difference
Clinical symptoms after administration ([2]; first cycle, 10/80 mg/kg group): in good condition
Clinical symptoms after administration ([2]; first cycle, 20/60 mg/kg group): unsteady gait
Clinical symptoms after administration ([2]; first cycle, 40/40 mg/kg): intermittent gait unsteady, accelerated breathing, and increased spontaneous activity
Clinical symptoms after administration ([2]; second cycle, 10/80 mg/kg): abnormal gait, decreased muscle tension, decreased spontaneous activity, irregular breathing, unsteady gait, accelerated breathing, erect hair, spasm, deepened breathing, prone, and arched back
Clinical symptoms after administration ([2]; second cycle, 20/60 mg/kg): intermittent deepened breathing, decreased spontaneous activity, unsteady gait, irregular breathing, increased spontaneous activity, accelerated breathing, unsteady gait, and prone
Clinical symptoms after administration ([2]; second cycle, 40/40 mg/kg): intermittent unsteady gait, deepened breathing, accelerated breathing, increased spontaneous activity, and abnormal gait
